Data set [1] deals with T1, recombinant MMP-9 enzyme (Homo sapiens, UniProt P14780).
T1 construct: purchased Abcam (Melbourne, Australia)
In words: MMP-9 inhibitor screening assay (fluorometric). The data set is classed as biochemical. How it is done: The MMP-9 inhibitor screening assay (fluorometric) kits were purchased from Abcam (Melbourne, Australia). The fluorometric kit contains the recombinant MMP-9 enzyme, MMP inhibitor NNGH (N-isobutyl-N-[4-methoxyphenylsulfonyl]glycyl hydroxamic acid), MMP fluorogenic substrate solubilised in DMSO, the fluorometric assay buffer and 96-well clear microplate.
Inhibitory activity on MMP-9 was assessed using the commercial MMP-9 inhibitor screening assay kit. MMP-9 activity was expressed as a change in fluorescence intensity measured using SpectraMax iD3 multi-mode microplate reader (Molecular Devices, San Jose, USA).
The assay employs a FRET-tagged (fluorescence resonance energy transfer) substrate, which can be hydrolysed by MMP-9 at a specific site (Abcam, 2018). The cleavage of the FRET substrate releases the quenched fluorescent Mca (7- methoxycoumarin-4-yl)-acetyl group (Abcam, 2018). The kit employs a quenched fluorogenic substrate Mca-Pro-Leu-Gly-Leu-Dpa-Ala-Arg-NH2, where the Mca fluorescence is quenched by Dpa until cleavage by MMPs. The amount of fluorescent product yielded by MMP-9 can be detected fluorometrically and it is proportional to the enzyme activity. Fluorescence were measured at ex320 nm-em395 nm to minimise fluorescence interference from 3,6,7-trimethyllumazine at ex330 nm-em470 nm. Assays were performed on a 96-well clear microplate included in the kit with a final reaction volume of 100 µL. Before adding the substrate, MMP-9 enzymes were incubated with testing samples and inhibitor control for 60 min at 37° C. The fluorescent substrate was added into each well prior to the assay to initiate the reaction. The assay was allowed to run for 20 min and the temperature in the reaction chamber was set to 37° C.
Testing samples were prepared comprising 3,6,7-trimethyllumazine prepared as outlined above.
A positive control was included with only MMP-9 and the fluorescent substrate, used as a reference to calculate the percentage inhibition. A broad spectrum MMP inhibitor NNGH was included as the negative control. […]

For data set [2], the target named is T1, recombinant MMP-9 enzyme. In words: MMP-9 inhibitor screening assay (colorimetric). In kind it is biochemical. As to conditions: read-out: percentage inhibition of MMP-9. An excerpt:
The MMP-9 inhibitor screening assay (colorimetric) kits were purchased from Abcam (Melbourne, Australia). The kit contains the recombinant MMP-9 enzyme, MMP inhibitor NNGH, MMP chromogenic substrate, the colorimetric assay buffer and 96-well clear microplate.
The colorimetric kit uses a thiopeptide as a chromogenic substrate (Ac-PLG- [2-mercapto-4-methyl-pentanoyl]-LG-[…]), which can be hydrolysed by MMPs to produce a sulfhydryl group. This intermediate product further reacts with DTNB [5,5′-dithiobis(2-nitrobenzoic acid), Ellman's reagent] to form 2-nitro-5-thiobenzoic acid, which can be detected by absorbance at 412 nm. The change in absorbance was measured using the SpectraMax iD3 multi-mode microplate reader (Molecular Devices, San Jose, USA). The assays are performed on a convenient 96-wells microplate with a final reaction volume of 100 μL. Prior to the assay, all testing samples and inhibitor controls were incubated with MMP-9 for 60 min at 37° C. […] The absorbance was measured at 1 min intervals during the first 20 min, then 10 min intervals till the end of assay.
Recombinant MMP-9 and the chromogenic substrate were used as the positive control to represent 100% enzyme activity. […] A range of 3,6,7-trimethyllumazine concentrations were diluted with the colorimetric assay buffer to measure the absorbance of the reaction product.

Data set [3] concerns active MMP-9. In words: Gelatin gel zymography, active MMP-9 band. The data set is classed as biochemical. To be noted: active MMP-9 band (~37 kDa); supplemented developing buffer. Here is the method:
(§1) Novex™ 10% Zymogram Plus (Gelatin) Protein Gels (15 wells) were purchased from Thermo Fisher Scientific Inc. (Auckland, New Zealand). All chemicals required for the zymogram analysis were also purchased from Thermo Fisher, these include Novex™ Sharp Pre-stained Protein Standard, Novex Tris-Glycine SDS sample buffer, Novex Tris-Glycine SDS running buffer, Novex Zymogram renaturing buffer and Novex Zymogram developing buffer. […] Gelatin gel zymography was performed as an independent technique to confirm the inhibition of MMP-9 from 3,6,7-trimethyllumazine. This technique uses a non-reducing SDS-PAGE (sodium dodecyl sulfate polyacrylamide gel electrophoresis) gel embedded with gelatin. Proteins are migrated and separated during electrophoresis. The SDS is removed after electrophoresis and the gel is then incubated with essential cofactors required for enzymatic activity. The embedded gelatin can be digested by MMP-9, resulting in clear bands on a dark blue background after staining with Coomassie blue dyes. The gelatinase activity is represented by band densitometry, which can be assessed with image analysis software. […]
(§2) After incubation, the gelatin gel was rinsed with water for three times (5 min each) under gentle agitation. […] MMP-9 activities were analysed using densitometry on ImageJ Version 1.52a.

The subject of data set [4] is inactive MMP-9 (pro-MMP-9). In words: Gelatin gel zymography, inactive (pro-)MMP-9 band. The data set is classed as biochemical. As to conditions: inactive MMP-9 band; supplemented developing buffer. Here is the method: as §1, §2
Data set [5] can be described thus: Simulated gastrointestinal digestion (SGF then SIF), 3,6,7-trimethyllumazine retention by HPLC. The data set is classed as in vitro ADME. As to conditions: from four Manuka honey samples; 2 h gastric plus 4 h intestinal digestion. Here is the method:
The simulated gastrointestinal digestion was carried out using a static model. The simulated gastric fluid (SGF) and the simulated intestinal fluid (SIF) were prepared in accordance with a global consensus protocol (Minekus et al 2014). The SGF has a pH 3 to mimic the fed-state of the stomach. When mixed with Manuka honey (or a honey solution), the final mixture contains 2000 U/mL of pepsin. The SIF has pH 7 to mimic the fed-state of the small intestine, containing 2 mg/mL of pancreatin (8 x USP, or based on a protease activity of 200 U/mL) and 20 mM of porcine bile extract before use.
In the simulated gastric digestion, 2 g of Manuka honey was incubated in 2 mL of SGF at 37° C. under 95 rpm shaking for a period of 2 h (triplicates). At selected time points (0, 30, 60 and 120 min), a predetermined volume (0.1 mL) of the mixture was withdrawn for 3,6,7-trimethyllumazine analysis. […]
The gastric and intestinal digesta for 3,6,7-trimethyllumazine analysis was treated to remove insoluble fractions (e.g. pancreatin) before HPLC analysis. […] The amount of 3,6,7-trimethyllumazine at different time points was analysed using a reverse-phase HPLC system, which has been previously used to analyse 3,6,7-trimethyllumazine and leptosperin as reported in the literature (Bin Lin et al 2017). […] The signal of 3,6,7-trimethyllumazine was detected at 320 nm.

In data set [6] the test system is MMP-9 secretion in differentiated THP-1 cells. In words: LPS induced MMP-9 secretion in differentiated THP-1 cells (ELISA). In kind it is cell-based, human. To be noted: LPS 1 μg/mL; for reduction of MMP-9 secretion: 24 hours. How it is done:
THP-1 cells (ATCC, ATCTIB202) were grown in RPMI-1640 (Gibco, 11875093)+0.05 mM 2-mercaptoethanol+10% fetal calf serum (FCS)+1% pen-strep. For experiments, the cells were cultured in RPMI-1640 medium with 10% fetal bovine serum (FBS) only.
THP-1 monocyte cells were seeded at a density of 2.5×10^5 cells/ml in 96-well plates and differentiated into macrophages using 10 ng/ml of phorbol 12-myristate 13-acetate (PMA) (Bergin et al) (Sigma, P1585-1MG, Lot #SLBX889, 100% purity) for 72 hours. PMA media was then removed from the differentiated THP-1 cells, the cells were then washed once in RPMI-1640 media and then left to rest for ˜5 hours.
The differentiated THP-1 cells were stimulated with LPS from E. coli […] (Sigma, L6529; Lot#037K4068). LPS tested at a concentration of 1 μg/ml (Kong et al). The cells were incubated with LPS alone or in combination with 3,6,7-trimethyllumazine (received from University of Auckland and diluted in RPMI-1640 at a stock concentration of 1 mg/ml, stock was stored in fridge for 2 days before use) at a concentration range between 2.5-40 μg/ml. 6 μM Azithromycin (Sigma, Cat #75199-25MG, Lot#069M4826V) was used as a positive control (Vandooren et al). The cells were then incubated with the different treatments for 24 hours (Kong et al). After 24 hours, the cell culture media was collected and measured for MMP-9 concentration using MMP-9 ELISA (R&D systems, RDSDY91105 lot #P239459 and DY008 Lot #P239900). The cells were then incubated with WST-1 for cell viability.
This human MMP-9 assay measures the 92 kDa Pro-MMP-9 and the 82 kDa active MMP-9. […] This assay also recognizes human MMP-9 when complexed to Lipocalin-2/NGAL, isolated from human source material.
In order to better capture the variability, each treatment was done at least in triplicate in each plate (2 plates). Media from the triplicate wells were pooled and analysed in duplicates for the MMP-9 ELISA. A student's test was performed in excel between media with LPS and the different treatments.

Data set [7] has as its system differentiated THP-1 cells. In words: Cell viability (WST-1). The data set is classed as cell-based. As to conditions: 40 μg/mL. How it is done:
To measure cytotoxicity of 3,6,7-trimethyllumazine at different doses, 2-(4-lodophenyl)-3-(4-nitrophenyl)-5-(2,4-disulfophenyl)-2H-tetrazolium, monosodium salt (WST-1) (Roche, 11644807001, Lot #45255800) was used. WST-1 is a cell proliferation reagent for measurement of cellular proliferation, viability, and cytotoxicity using a colorimetric assay (Gosert (2011); Peskin (2000)).
After incubation, a portion of the culture media was taken and stored for MMP-9 secretion testing using ELISA. The remaining media in the plates was then removed and 100 μl of WST-1 in RPMI-1640 media (1:10 dilution) was added to each cell well and incubated at 37° C. for a further 4 hours. The plates were then read using a plate reader at wavelength of 450 nm. Cytotoxicity was calculated as follows: • [WST-1 score for each sample/WST-1 score for the control]×100 • A WST-1 score below 80% will be considered cytotoxic.
A general note: Tetrazolium assays rely on reduction of a dye to a coloured formazan, in cell work by metabolically active cells.

A word on the inhibition: it is the change of the read-out against control, counted positive when it falls. For orientation: IC50 means the concentration needed to halve the response being measured.

T1 sequence (P14780 94-707): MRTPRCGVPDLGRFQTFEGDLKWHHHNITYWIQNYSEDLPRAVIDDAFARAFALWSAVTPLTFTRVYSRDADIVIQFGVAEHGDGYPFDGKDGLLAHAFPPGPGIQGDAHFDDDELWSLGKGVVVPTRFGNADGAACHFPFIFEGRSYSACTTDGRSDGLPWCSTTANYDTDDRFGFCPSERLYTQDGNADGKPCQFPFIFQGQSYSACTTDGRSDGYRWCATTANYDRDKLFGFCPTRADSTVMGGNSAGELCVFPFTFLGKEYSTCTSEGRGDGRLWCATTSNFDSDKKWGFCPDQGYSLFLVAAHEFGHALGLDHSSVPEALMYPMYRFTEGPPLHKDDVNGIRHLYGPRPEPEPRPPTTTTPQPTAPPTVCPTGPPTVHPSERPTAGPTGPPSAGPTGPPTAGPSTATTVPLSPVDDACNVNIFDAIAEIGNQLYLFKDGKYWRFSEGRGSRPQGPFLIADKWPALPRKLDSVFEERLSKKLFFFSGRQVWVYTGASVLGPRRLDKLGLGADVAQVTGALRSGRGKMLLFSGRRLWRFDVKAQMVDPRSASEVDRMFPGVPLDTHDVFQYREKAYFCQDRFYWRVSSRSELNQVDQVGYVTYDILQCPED

Consider `Cc1nc2[nH]c(=O)n(C)c(=O)c2nc1C` [3,6,7-trimethyllumazine], for which the inhibition at 2.5 µg/mL in data set [1] (2.5 μg/ml, not significant (p>0.05), read-out: percentage inhibition of MMP-9 activity) was found to be 12%. Moreover, the 50% inhibitory concentration (IC50) in data set [1] (fluorometric, second-order polynomial fit of % inhibition vs concentration) was 55.8 µM. In data set [2] (40 μg/ml), the inhibition at 40 µg/mL came to 10%. Further, the inhibition at 80 µg/mL in data set [2] (80 μg/ml) stood at 10%. Besides, the “percentage inhibition of gelatinase activity (densitometry)” value in data set [3] is on record as 31%; in data set [4], 17%. Also, in data set [5], the “initial 3,6,7-trimethyllumazine amount recovered in the digesta” value is on record as roughly 100%. For the same compound, the “reduction of MMP-9 secretion” value in data set [6] (30 μg/mL) was 23%; in data set [6] (40 μg/mL), 38%. Also, in data set [7], the “WST-1 score (cell viability; below 80% considered cytotoxic)” value is 79.8%.
On to `CC[C@H]1OC(=O)[C@H](C)[C@@H](O[C@H]2C[C@@](C)(OC)[C@@H](O)[C@H](C)O2)[C@H](C)[C@@H](O[C@@H]2O[C@H](C)C[C@H](N(C)C)[C@H]2O)[C@](C)(O)C[C@@H](C)CN(C)[C@H](C)[C@@H](O)[C@]1(C)O` [Azithromycin, reference compound], for which the “effect on MMP-9 secretion” value in data set [6] (6 μM positive control, absolute values, P=0.00) is “inhibits mmp-9 secretion”.
Take `COc1ccc(S(=O)(=O)N(CC(=O)NO)CC(C)C)cc1` [NNGH, N-isobutyl-N-[4-methoxyphenylsulfonyl]glycyl hydroxamic acid, reference compound]: the “change in fluorescence intensity (MMP-9 activity)” value in data set [1] (NNGH inhibitor control) is “almost no change in fluorescence”.

The record behind these values is patent US20220296600A1, “USE OF A COMPOSITION COMPRISING 3,6,7-TRIMETHYLLUMAZINE FOR PREVENTING, AMELIORATING OR TREATING MMP-9 ASSOCIATED CONDITIONS AND INFLAMMATION” (COMVITA LIMITED, priority 2019, published 2022).
